Experimental data published in publication PMC11672637, “7-O-Carboxylic Acid-Substituted 3-O-Alkyl Difluoroquercetin; An Aztreonam-Potentiating Agent Against Carbapenemase-Producing Pseudomonas aeruginosa Through Simultaneous Inhibition of Metallo-β-Lactamase and Efflux Pump” (Antibiotics, 2024).
Converted amounts (≈) assume the structure as drawn. Where two headings read alike, the source gives them in different places.

Legend:
Format in all cases: cell-based, P. aeruginosa
[1] = system: PA-039, blaNDM; assay: MIC / checkerboard with ATM; settings: for MIC: Pseudomonas aeruginosa, read-out: MIC of ATM with 5, PA-039
[2] = system: PA-041, blaNDM; assay: MIC / checkerboard with ATM; settings: for MIC: Pseudomonas aeruginosa, read-out: MIC of ATM with 5, PA-041
[3] = system: ATM-Susceptible CPPA (n = 11); assay: MIC distribution over clinical isolates; settings: Pseudomonas aeruginosa
[4] = system: PA-002, blaIMP; assay: Time–kill assay; settings: for Log CFU/mL, ATM + 5: 24 h
Protocol: Aliquots (50 μL) were taken from the incubation mixture at regular time intervals (t = 0, 3, 6, and 24 h), serially diluted in 0.85% NaCl solution, and plated on BAP. Bacterial colonies were counted, and the data are presented as the means of at least three independent experiments.

## CC(C)(C)CCOc1c(-c2ccc(F)c(F)c2)oc2cc(OCC(=O)O)cc(O)c2c1=O [Compound 5, 2-((2-(3,4-Difluorophenyl)-3-(3,3-dimethylbutoxy)-5-hydroxy-4-oxo-4H-chromen-7-yl)oxy)acetic Acid]
[1]; PA-039, ATM/5
  Susceptibility to ATM: S (S (sensitive, MIC ≤ 8 mg/L))
[1]; PA-039, lowest-FICI combination
  FD (fold decrease in MIC of ATM with 5): 4
[1]; 5 at 1 mg/L
  MIC: 16 µg/mL
[1]; 5 at 2 mg/L
  MIC: 16 µg/mL
[1]; 5 at 4 mg/L
  MIC: 8 µg/mL
[1]; 5 at 8 mg/L
  MIC: 4 µg/mL
[1]; 5 at 16 mg/L
  MIC: 4 µg/mL
[1]; 5 at 32 mg/L
  MIC: 4 µg/mL
[1]; 5 at 64 mg/L
  MIC: 4 µg/mL
[2]; PA-041
  Activity (FICI class): S (S (Synergy, FICI ≤ 0.5))
  Concentrations of ATM and 5 at lowest FICI (ATM/5): 1/32
  Lowest FICI (ATM/5): 0.31
[2]; PA-041, ATM/5
  Susceptibility to ATM: S (S (sensitive, MIC ≤ 8 mg/L))
[2]; PA-041, lowest-FICI combination
  FD (fold decrease in MIC of ATM with 5): 4
[2]; 5 at 1 mg/L
  MIC: 4 µg/mL
[2]; 5 at 2 mg/L
  MIC: 4 µg/mL
[2]; 5 at 4 mg/L
  MIC: 2 µg/mL
[2]; 5 at 8 mg/L
  MIC: 2 µg/mL
[2]; 5 at 16 mg/L
  MIC: 2 µg/mL
[2]; 5 at 32 mg/L
  MIC: 1 µg/mL
[2]; 5 at 64 mg/L
  MIC: 1 µg/mL
[3]; read-out: MIC50 of ATM, 5 at 1 mg/L
  MIC50: 4 µg/mL (≈ 8.92 µM)
[3]; read-out: MIC50 of ATM, 5 at 2 mg/L
  MIC50: 2 µg/mL (≈ 4.46 µM)
[3]; read-out: MIC50 of ATM, 5 at 4 mg/L
  MIC50: 2 µg/mL (≈ 4.46 µM)
[3]; read-out: MIC50 of ATM, 5 at 8 mg/L
  MIC50: 2 µg/mL (≈ 4.46 µM)
[3]; read-out: MIC50 of ATM, 5 at 16 mg/L
  MIC50: 1 µg/mL (≈ 2.23 µM)
[3]; read-out: MIC50 of ATM, 5 at 32 mg/L
  MIC50: 1 µg/mL (≈ 2.23 µM)
[3]; read-out: MIC50 of ATM, 5 at 64 mg/L
  MIC50: 1 µg/mL (≈ 2.23 µM)
[3]; read-out: MIC90 of ATM, 5 at 1 mg/L
  MIC90: 8 µg/mL (≈ 17.8 µM)
[3]; read-out: MIC90 of ATM, 5 at 2 mg/L
  MIC90: 4 µg/mL (≈ 8.92 µM)
[3]; read-out: MIC90 of ATM, 5 at 4 mg/L
  MIC90: 4 µg/mL (≈ 8.92 µM)
[3]; read-out: MIC90 of ATM, 5 at 8 mg/L
  MIC90: 2 µg/mL (≈ 4.46 µM)
[3]; read-out: MIC90 of ATM, 5 at 16 mg/L
  MIC90: 2 µg/mL (≈ 4.46 µM)
[3]; read-out: MIC90 of ATM, 5 at 32 mg/L
  MIC90: 2 µg/mL (≈ 4.46 µM)
[3]; read-out: MIC90 of ATM, 5 at 64 mg/L
  MIC90: 2 µg/mL (≈ 4.46 µM)
[4]; ATM 1/2 MIC + 5 at 8 mg/L
  Diff. (ATM + 5, 24 h vs initial inoculum): 1.21 Log CFU/mL
  Diff. (ATM + 5 vs ATM only): −2.36 Log CFU/mL
  Synergistic activity, interpretation: Synergy (a ≥ 2 log10 decrease in CFU/mL for the combination of ATM and 5 compared to ATM alone after 24 h of incubation)
  Log CFU/mL, ATM + 5: 6.66 Log CFU/mL
[4]; ATM 1/4 MIC + 5 at 8 mg/L
  Diff. (ATM + 5, 24 h vs initial inoculum): 2.26 Log CFU/mL
  Diff. (ATM + 5 vs ATM only): −1.77 Log CFU/mL
  Log CFU/mL, ATM + 5: 7.71 Log CFU/mL
[4]; ATM 1 MIC + 5 at 8 mg/L
  Diff. (ATM + 5, 24 h vs initial inoculum): −2.42 Log CFU/mL
  Diff. (ATM + 5 vs ATM only): −5.12 Log CFU/mL
  Synergistic activity, interpretation: Synergy (a ≥ 2 log10 decrease in CFU/mL for the combination of ATM and 5 compared to ATM alone after 24 h of incubation)
  Log CFU/mL, ATM + 5: 3.03 Log CFU/mL
